Measurements published in patent publication US20240246918A1, “COMPOUNDS AND COMPOSITIONS AS EIF4E INHIBITORS AND THE USES THEREOF” (Ribometrix, Inc., priority 2022, published 2024).

Assays:
human eIF4E protein = molecular target: T1, human eIF4E protein (Homo sapiens, UniProt P06730); assay: Biochemical competitive binding assay (TR-FRET competition, EDA-m7GDP-ATTO-647N probe); details: read-out: hEIF4E TR-FRET IC50
T1 construct: purchased Novus NBP-45314
Protocol: The potencies of compounds binding to human eIF4E protein were measured using a 384-well time-resolved fluorescence resonance energy transfer (TR-FRET) competition assay. The assay was performed in assay buffer containing 50 mM HTEPES pH 7.5, 100 mM KCl, 0.02% Tween-20, and 0.1 mg/mL bovine serum albumin (BSA). The reaction volume was 10 μL and each reaction contained 4 nM recombinant 6×HIS-tagged human EIF4E protein (Novus, NBP-45314), 5 nM EDA-m7GDP-ATTO-647N (Jena Bioscience, NU-827-647N), 2.5 nM Europium conjugated Anti-6×HIS antibody (PerkinElmer, AD0402) and varying concentrations of compound. The final DMSO concentration was […].
Compounds were prepared using 11-point, 4-fold serial dilutions in DMSO and 100 nL of diluted compounds were transferred to 384-well assay-ready plates. Recombinant human EIF4E protein at 2× final concentration (8 nM) was pre-incubated with Eu-anti-6×HIS antibody at 2× final concentration (5 nM) for 5 minutes, then 5 μL of the protein solution was added to assay-ready plates. The protein/compound mix was incubated for 15 minutes, after which 5 μL of a solution containing EDA-m7GDP-ATTO-647N probe at 2× final concentration (10 nM) was added. After a subsequent 15-minute incubation, time-resolved fluorescence of assay plates was measured using a Clariostar Plus microplate reader (BMG Labtech) and TR-FRET values were calculated by taking a ratio of the 665 to 620 wavelength signals. After normalization to the average of DMSO control and maximum inhibition control wells, concentration-response data were plotted and standard 4-parameter curve fitting (PEI Signals) was utilized to determine IC50 values.

[1] = test system: COLO 205 colorectal tumor cells; assay: Tumor cell viability inhibition assay (CellTiter-Glo 2.0, 72 hours); type: cell-based; details: COLO 205 cell viability
Protocol: The effect of compound treatment on COLO 205 tumor cell viability was assessed using cellular ATP quantification methods (Promega CellTiter-Glo® 2.0, G9241), as follows. Test compounds were prepared using 11-point, 4-fold serial dilutions in DMSO and 100 nL of diluted compounds were transferred to 384-well assay-ready plates. COLO 205 (ATCC, CCL-222) colorectal tumor cells were seeded to assay-ready plates in RPMI-1640 medium supplemented with 10% FBS at 1500 cells in a volume of 33.5 microliters per well. After 72 hours of compound treatment, cellular ATP was assessed by CellTiter-Glo® 2.0 Cell Viability Assay method, according to the manufacturer's instructions. Luminescence was measured using a Clariostar Plus microplate reader (BMG Labtech) or equivalent. After normalization to the average of DMSO control and maximum inhibition control wells, concentration-response data were plotted and standard 4-parameter curve fitting (PEI Signals) was utilized to determine IC50

T1 sequence (P06730 whole entry): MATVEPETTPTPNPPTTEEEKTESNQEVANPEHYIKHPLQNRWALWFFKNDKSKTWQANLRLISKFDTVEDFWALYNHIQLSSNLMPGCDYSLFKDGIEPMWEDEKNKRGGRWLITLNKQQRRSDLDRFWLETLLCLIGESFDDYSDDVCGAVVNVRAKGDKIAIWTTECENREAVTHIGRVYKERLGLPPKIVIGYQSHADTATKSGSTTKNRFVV

| SMILES | IC50 (human eIF4E protein) | IC50 ([1]; Homo sapiens, COLO 205, 72 h) | IC50 [1] |
| --- | --- | --- | --- |
| Cc1cc(-c2cc(Cl)ccc2OCCn2c(C)nc3c(c2=O)CC(N2CCC4(CCN(CC(F)(F)F)C4)C2)CC3)c2scc(C(=O)O)c2n1 (single isomer, unassigned) [Compound 506] | < 0.1 µM |  | < 5 µM |
| Cc1cc(-c2cc(Cl)ccc2OCCn2c(C)nc3c(c2=O)C[C@H](N2CCCC[C@H]2c2cccc(F)c2)CC32CC2)c2scc(C(=O)O)c2n1 (single isomer, unassigned) [Compound 626, 7-(5-chloro-2-(2-(6′-(2-(3-fluorophenyl)piperidin-1-yl)-2′-methyl-4′-oxo-6′,7′-dihydro-4′H-spiro[cyclopropane-1,8′-quinazolin]-3′(5′H)-yl)ethoxy)phenyl)-5-methylthieno[3,2-b]pyridine-3-carboxylic acid] | < 0.1 µM | 5 to 20 µM |  |
| Cc1cc(-c2cc(Cl)ccc2C#CCn2c(C)nc3c(c2=O)CC(C)(N2CCCC4(C2)CC4(F)F)CC3)c2scc(C(=O)O)c2n1 (single isomer, unassigned) [Compound 615] | 0.1 to 0.5 µM |  | > 20 µM |
| Cc1cc(-c2cc(Cl)ccc2OCCn2c(C)nc3c(c2=O)C[C@](C)(N2CCC[C@@]4(C2)CC4(F)F)CC3)c2scc(C(=O)O)c2n1 (single isomer, unassigned) [Compound 554] | 0.1 to 0.5 µM | 5 to 20 µM |  |
| Cc1cc(-c2cc(Cl)ccc2OCCn2c(C)nc3c(c2=O)C[C@@H](N2CCC(Oc4ccc(F)cc4F)CC2)CC3)c2scc(C(=O)O)c2n1 (single isomer, unassigned) [Compound 596] | < 0.1 µM | < 5 µM |  |
| Cc1cc(-c2cc(Cl)ccc2OCCn2c(C)nc3c(c2=O)C[C@@H](N2CC[C@H](OC(F)(F)F)C(F)(F)C2)CC3)c2scc(C(=O)O)c2n1 (single isomer, unassigned) [Compound 406] | < 0.1 µM | 5 to 20 µM |  |
| Cc1cc(-c2cc(Cl)ccc2OCCn2c(C)nc3c(c2=O)C[C@@H](N2CCC(c4ncco4)CC2)CC3)c2scc(C(=O)O)c2n1 (single isomer, unassigned) [Compound 461] | < 0.1 µM | < 5 µM |  |
| Cc1csc([C@H]2CCCN([C@@H]3CCc4nc(C)n(CCOc5ccc(Cl)cc5-c5cc(C)nc6c(C(=O)O)csc56)c(=O)c4C3)C2)n1 (single isomer, unassigned) [Compound 483] | < 0.1 µM | < 5 µM |  |
| Cc1cc(-c2cc(Cl)ccc2OCCn2c(C)nc3c(c2=O)CC(C)(N2CCC(OC(F)(F)F)CC2)CC3)c2scc(C(=O)O)c2n1 (single isomer, unassigned) [Compound 516] | < 0.1 µM |  | < 5 µM |
| COc1cc(C2CCN([C@@H]3CCc4nc(C)n(CCOc5ccc(Cl)cc5-c5cc(C)nc6c(C(=O)O)csc56)c(=O)c4C3)CC2)ccn1 (single isomer, unassigned) [Compound 575] | < 0.1 µM | < 5 µM |  |
| Cc1cc(-c2cc(Cl)ccc2OCCn2c(C)nc3c(c2=O)CC(N(C)Cc2ccc(=O)[nH]c2)CC3)c2scc(C(=O)O)c2n1 (single isomer, unassigned) [Compound 236] | < 0.1 µM |  | > 20 µM |
| Cc1cc(-c2cc(Cl)ccc2OCCn2c(C)nc3c(c2=O)CC(N2CCC(CC(F)(F)F)CC2)CC3(C)C)c2scc(C(=O)O)c2n1 (single isomer, unassigned) [Compound 492] | < 0.1 µM | < 5 µM |  |
| Cc1cc(-c2cc(Cl)c(=O)[nH]c2OCCn2c(C)nc3c(c2=O)CC(N(C)C2CC2)CC3)c2scc(C(=O)O)c2n1 (single isomer, unassigned) [Compound 234] | 0.5 to 5 µM |  | > 20 µM |
| Cc1cc(-c2cc(Cl)ccc2OCCn2c(C)nc3c(c2=O)CC(N2CCC(CC(F)(F)F)CC2)CC3(C)C)c2scc(C(=O)O)c2n1 (single isomer, unassigned) [Compound 500] | < 0.1 µM |  | < 5 µM |
| Cc1cc(-c2ccc(Cl)cc2OCCn2c(C)nc3c(c2=O)C[C@@H](N(C)[C@H]2C[C@@](C)(O)C2)CC3)c2scc(C(=O)O)c2n1 (single isomer, unassigned) [Compound 228] | < 0.1 µM | > 20 µM |  |
| Cc1cc(-c2cc(Cl)ccc2OCCn2c(C)nc3c(c2=O)C[C@@H](N2[C@@H]4CC[C@H]2C[C@H](OC(F)(F)F)C4)CC3)c2scc(C(=O)O)c2n1 (single isomer, unassigned) [Compound 397] | 0.1 to 0.5 µM | 5 to 20 µM |  |
| Cc1cc(-c2cc(Cl)ccc2OCCn2c(C)nc3c(c2=O)C[C@@H](N2CCC(c4cnc(C(F)(F)F)nc4)CC2)CC3)c2scc(C(=O)O)c2n1 (single isomer, unassigned) [Compound 585] | < 0.1 µM | < 5 µM |  |
| CO[C@@H](C1CCN([C@@H]2CCc3nc(C)n(CCOc4ccc(Cl)cc4-c4cc(C)nc5c(C(=O)O)csc45)c(=O)c3C2)CC1)C(F)(F)F (single isomer, unassigned) [Compound 551] | < 0.1 µM | < 5 µM |  |
| COC1CCN(C2(C)CCc3nc(C)n(CCOc4ccc(Cl)cc4-c4cc(C)nc5c(C(=O)O)csc45)c(=O)c3C2)CC1 (single isomer, unassigned) [Compound 496] | < 0.1 µM |  | < 5 µM |

Continued, values first:

| IC50 (human eIF4E protein) | IC50 ([1]; Homo sapiens, COLO 205, 72 h) | IC50 [1] | SMILES |
| --- | --- | --- | --- |
| < 0.1 µM | < 5 µM |  | Cc1cc(-c2cc(Cl)ccc2OCCn2c(C)nc3c(c2=O)C[C@@H](N2CC4(CCC(F)(F)CC4)C2)CC3)c2scc(C(=O)O)c2n1 (single isomer, unassigned) [Compound 128] |
| < 0.1 µM | < 5 µM |  | Cc1cc(-c2cc(Cl)ccc2OCCn2c(C)nc3c(c2=O)CC(N2CCC4(CC2)CN(CC(F)(F)F)CC4(F)F)CC3)c2scc(C(=O)O)c2n1 (single isomer, unassigned) [Compound 529] |
| < 0.1 µM | < 5 µM |  | Cc1csc([C@@H]2CCCN([C@H]3CCc4nc(C)n(CCOc5ccc(Cl)cc5-c5cc(C)nc6c(C(=O)O)csc56)c(=O)c4C3)C2)n1 (single isomer, unassigned) [Compound 481] |
| < 0.1 µM | < 5 µM |  | Cc1cc(-c2cc(Cl)ccc2OCCn2c(C)nc3c(c2=O)C[C@@H](N2CCO[C@@H](CC(F)(F)F)C2)CC3)c2scc(C(=O)O)c2n1 (single isomer, unassigned) [Compound 524] |
| < 0.1 µM | 5 to 20 µM |  | Cc1cc(-c2cc(Cl)ccc2OCCn2c(C)nc3c(c2=O)C[C@@H](N2CCC(N4CC(F)(F)C4)CC2)CC3)c2scc(C(=O)O)c2n1 (single isomer, unassigned) [Compound 110] |
| < 0.1 µM | 5 to 20 µM |  | Cc1cc(-c2cc(Cl)ccc2OCCn2c(C)nc3c(c2=O)CC(N2CCC(OC(F)(F)F)CC2)CC3(C)C)c2scc(C(=O)O)c2n1 (single isomer, unassigned) [Compound 442, 7-(5-chloro-2-(2-(2,8,8-trimethyl-4-oxo-6-(4-(trifluoromethoxy)piperidin-1-yl)-5,6,7,8-tetrahydroquinazolin-3(4H)-yl)ethoxy)phenyl)-5-methylthieno[3,2-b]pyridine-3-carboxylic acid] |
| < 0.1 µM | 5 to 20 µM |  | Cc1cc(-c2cc(Cl)ccc2OCCn2c(C)nc3c(c2=O)C[C@@H](N2CCC[C@@]4(C2)CC4(F)F)CC3(C)C)c2scc(C(=O)O)c2n1 (single isomer, unassigned) [Compound 441] |
| < 0.1 µM | < 5 µM |  | Cc1cc(-c2cc(Cl)ccc2OCCn2c(C)nc3c(c2=O)C[C@@H](N2CCC[C@@H](C(F)F)C2)CC3)c2scc(C(=O)O)c2n1 (single isomer, unassigned) [Compound 100] |
| < 0.1 µM | < 5 µM |  | CO[C@H]1CCN([C@H]2CCc3nc(C)n(CCOc4ccc(Cl)cc4-c4cc(C)nc5c(C(=O)O)csc45)c(=O)c3C2)CC1(C)C (single isomer, unassigned) [Compound 378] |
| < 0.1 µM | < 5 µM |  | Cc1cc(-c2cc(Cl)ccc2OCCn2c(C)nc3c(c2=O)C[C@H](N2C[C@H]4CC[C@@H]2CC4OC(F)(F)F)CC32CC2)c2scc(C(=O)O)c2n1 (single isomer, unassigned) [Compound 606] |
| < 0.1 µM | < 5 µM |  | Cc1cc(-c2cc(Cl)ccc2OCCn2c(C)nc3c(c2=O)C[C@@H](N2C[C@@H]4CC[C@H]2CC4OC(F)(F)F)CC3)c2scc(C(=O)O)c2n1 (single isomer, unassigned) [Compound 498] |
| < 0.1 µM | 5 to 20 µM |  | Cc1cc(-c2cc(Cl)ccc2OCCn2c(C)nc3c(c2=O)C[C@@H](N2CCC[C@@H](C(F)(F)F)C2)CC3)c2scc(C(=O)O)c2n1 (single isomer, unassigned) [Compound 383] |
